Test results: publication PMC3199867, “Targeting surface nucleolin with multivalent HB-19 and related Nucant pseudopeptides results in distinct inhibitory mechanisms depending on the malignant tumor cell type” (BMC Cancer, 2011)

How the values were obtained:
[1] = system: MMP-9; assay: mRNA expression by RT-PCR in SW620 cells; assay type: cell-based, human; conditions: SW620, 10 μM, 24 hours post-seeding
Experimental: (§1) SW620 cells were cultured in the absence or presence of N7 before extraction for total RNA using RNeasy Mini Kit (Qiagen) according to the manufacturer's instructions. RT was carried out with oligo(dT) and 2-4 μg of total RNA using Superscript II Reverse Transcriptase (Invitrogen). PCR was performed in a RoboCycler 96 (Stratagene, La Jolla, CA, USA) with specific primers for human nucleolin (referred to as NCL) 5'-[…]-3' and 5'-[…]-3' (835 bp); glyceraldehyde-3-phosphate dehydrogenase (GAPDH) 5'-TGAAGG-[…]-3' and 5'-[…]-CCAC-3' (983 bp); nucleophosmin (NPM or B23) 5'-[…]-3' and 5'-[…]-3' (320 bp); matrix metalloproteinase-2 (MMP-2) 5'-[…]-3' and 5'-[…]-3' (580 bp); matrix metalloproteinase-9 (MMP-9) 5'-[…] TCAGAGC-3' and 5'-[…]-3' (243 bp); tissue inhibitor of metalloproteinase 1 (TIMP-1) 5'-[…]-3' and 5'-[…]-3' (667 bp); tissue inhibitor of metalloproteinase 2 (TIMP-2) 5'-[…]-3' and 5'-[…]-3' (405 bp). PCR amplification conditions were: 95°C for 5 min, 30 cycles at 95°C for 30 sec, 60°C for 30 sec and 72°C for 45 sec, and 72°C for 5 min (for NCL and GAPDH), 95°C for 5 min, 30 cycles at 95°C for 30 sec, 53°C for 30 sec and 72°C for 30 sec, and 72°C for 5 min (for NPM); 95°C for 5 min, 35 cycles at 95°C for 45 sec, 56°C for 45 sec and 72°C for 45 sec, and 72°C for 5 min (for MMP2 and MMP9); 95°C for 5 min, 30 cycles at 95°C for 45 sec, 59°C for 1 min and 72°C for 1 min 30 sec, and 72°C for 5 min (for TIMP1 and TIMP2).
(§2) Figure 6 Selective down regulation of MMP-9 and nucleolin transcripts in Nucant treated SW620 cells. A. SW620 cells in the absence (lanes -) and presence (lanes +) of 10 μM of N7 were cultured for 24, 48, and 72 hours. B. Dose dependent reduction of MMP-9 and nucleolin transcripts in response to Nucant treatment. Newly seeded SW620 cells were cultured in the absence (lanes 1) and presence of 2.5 (lanes 2), 5 (lanes 3) and 10 (lanes 4) […] of N6 for 20 hours. Total RNA extracts were prepared at different time points and the expression of various transcripts was analyzed by RT-PCR using specific primers (Methods). […]

[2] = system: nucleolin; assay: mRNA expression by RT-PCR in SW620 cells; assay type: cell-based, human; conditions: SW620, 10 μM, 24, 48 and 72 hours
Experimental: as §1, §2

[3] = system: nucleophosmin; assay: mRNA expression by RT-PCR in SW620 cells; assay type: cell-based, human; conditions: SW620, 10 μM, 24, 48 and 72 hours
Experimental: as §1, §2

[4] = system: melanoma TIII cell; assay: Cell adhesion; assay type: cell-based, murine; conditions: after 5 hours of cell seeding, vs untreated control, mean of at least 2 independent experiments
[5] = system: T29 cells; assay: Internucleosomal DNA fragmentation (low molecular weight DNA of nucleoplasm, agarose gel); assay type: cell-based, murine; conditions: T29 cells, 2.5, 5, 10, and 20 μM, 24 hours
Text: Extraction of nuclei in buffer I (prepared as above) from viable cells results in the recovery of chromatin-free nucleoplasm. However, during cell death when DNA fragmentation occurs, the low molecular weight DNA fragments are recovered in the nucleoplasm. Consequently, supernatant of nuclear extracts from cells undergoing programmed cell death contain low molecular weight DNA fragments, whereas the pellet of the nuclear extracts contain the high molecular weight chromatin. By this experimental approach, DNA fragmentation could be analyzed without interference of the bulky DNA [51]. […] The DNA pellet was resuspended in electrophoresis buffer (10 mM Tris-HCI, pH 8.0, 1 mM EDTA) and analyzed by electrophoresis on 1.5% agarose gels containing […] ethydium bromide.
Figure 7 HB-19 and related multivalent Nucant pseudopeptides induce cell death associated with internucleosomal DNA fragmentation. […] Cell cultures (in triplicate) were monitored for viable cell number daily for 3 days. […] T29 cells seeded at 100,000/ml in 2 ml in the absence (0 μM) or presence of N7 at various concentrations 2.5, 5, 10 and 20 μM were cultured for 3 days and the number of viable cells was determined at day 1, 2, and 3 post-seeding. […] The nuclear extracts were analyzed by immunoblotting using anti-Nt Ab (Methods). […]

Substance	expression of MMP-9 transcripts [1]	transcripts coding nucleolin [2]	expression of transcripts coding nucleophosmin [3]	% Inhibition of cell Adhesion ([4]; 2.5 μM) [%]	% Inhibition of cell Adhesion ([4]; 5 μM) [%]	% Inhibition of cell Adhesion ([4]; 10 μM) [%]	% Inhibition of cell Adhesion ([4]; 20 μM) [%]	DNA fragmentation [5]
Ac-KAKPGKAKPGKAKPG-NH2 [Nucant N7, Presents hexavalently the pseudo-tripeptide Lysψ(CH2N)-Pro-Arg coupled to a similar template as in HB-19]	completely abolished	marked down regulation	not affected					
Ac-Lys-Aib-Gly-Lys-Aib-Gly-Lys-Aib-Gly-Lys-Aib-Gly-Lys-Aib-Gly-Lys-Aib-Gly-CONH2 [Nucant N6, Presents hexavalently the pseudo-tripeptide Lysψ(CH2N)-Pro-Arg coupled to the polypeptide template containing Aib]				15	26	38	55	Internucleosomal DNA cleavage
